A short description of one data set: in vitro. The following applies: human.
The test system of data set [1] is CEM cells.
Data set [2] is described as follows: Conversion of radiolabeled G-NH2 to modified G-NH2 by fetal bovine sera. Format: in vitro ADME. The note with it: 10% fetal bovine sera in PBS, 37° C. The method, then: Several lots of human sera and fetal bovine sera were analyzed for their ability to convert G-NH2 to modified G-NH2. Radiolabeled cation exchange HPLC purified G-NH2 (see EXAMPLE 3) was incubated with the various sera at a 10% final concentration in PBS at 37° C. for 15 minutes and 1, 6, 24, or 72 hours. Subsequently, the amount of radiolabeled modified G-NH2 was evaluated using the cation exchange HPLC approach described above.

Data set [3] can be described thus: Conversion of G-NH2 to modified G-NH2 by dialyzed pig plasma (cation exchange HPLC). Format: in vitro ADME. The note with it: for conversion to modified G-NH2 (24 hr) (percent conversion) Dialysed Pig plasma: 37° C.; for Percent conversion / μM formation: 6 hr. The procedure:
In still another set of experiments, a first step isolation of the cofactor present in pig plasma was performed and the enzymatic activity of the isolated product was compared to the enzymatic activity of the crude product. An aliquot of pig plasma was placed in dialysis tubing (MW cut off 10,000) and the serum was subjected to dialysis. Subsequently, the pig plasma dialysate was evaluated for the ability to convert G-NH2 to modified G-NH2.
Various concentrations of G-NH2 were mixed with either 90% pig plasma or 90% dialyzed pig plasma in PBS and the reactions were conducted at 37° C. for 24 hours. Subsequently, aliquots of the mixtures were separated by cation exchange HPLC, as described previously, and the conversion of G-NH2 to modified G-NH2 was evaluated. […] Saturation of the enzyme activity of cofactor(s) in pig plasma (90% in PBS) occurred between 1,000 μM and 10,000 μM G-NH2.
In still another set of experiments, the saturation point of the isolated cofactor found in pig plasma was more closely scrutinized. Dialyzed pig plasma (90% in PBS) was mixed with concentrations of G-NH2 between […] and 10,000 μM. Subsequently, the mixtures were incubated at 37° C. for 6 hours and aliquots were separated by cation exchange HPLC, as before. The results shown in TABLE 8 confirmed that the saturation point of the cofactor(s) in pig plasma was near 2,000 μM G-NH2.

The target of data set [4] is glycine oxidase from Bacillus subtilis (Bacillus subtilis, UniProt O31616).
Data set [5] has as its system CEM cells. Kind of data set: Cytotoxicity / cell proliferation in CEM cells.
A short description of data set [6]: Cytotoxicity / cell proliferation in CEM cells. The following applies: human.
Where [7] appears, read: 2,000 μM G-NH2, dialyzed pig plasma 90% in PBS.
Setting [8] is: 4,000 μM G-NH2, dialyzed pig plasma 90% in PBS.
Where [9] appears, read: 6,000 μM G-NH2, dialyzed pig plasma 90% in PBS.
The mark [10] stands for this setting: 8,000 μM G-NH2, dialyzed pig plasma 90% in PBS.
The mark [11] stands for this setting: 10,000 μM G-NH2, dialyzed pig plasma 90% in PBS.

Each structure is given as a SMILES string. Structures can show the parent of a compound that is named as a salt. Where two headings read alike, the source gives them in different places. Residues, ends and D or L forms follow the SMILES beside them.

Usually EC50 stands for the concentration that produces a half-maximal response.

Sequence of glycine oxidase from Bacillus subtilis (O31616 whole entry): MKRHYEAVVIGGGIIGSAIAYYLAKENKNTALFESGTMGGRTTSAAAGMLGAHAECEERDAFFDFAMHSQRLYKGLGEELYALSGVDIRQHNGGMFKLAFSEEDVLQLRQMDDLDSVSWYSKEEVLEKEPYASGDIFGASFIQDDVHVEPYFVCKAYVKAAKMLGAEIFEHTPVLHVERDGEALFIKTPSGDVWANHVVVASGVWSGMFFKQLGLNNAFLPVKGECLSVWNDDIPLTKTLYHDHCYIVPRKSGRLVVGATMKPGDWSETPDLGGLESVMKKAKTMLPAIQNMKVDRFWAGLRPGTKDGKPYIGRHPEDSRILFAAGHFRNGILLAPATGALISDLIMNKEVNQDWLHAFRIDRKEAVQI

In turn, `NC(=O)C(N)O` (stereo not drawn) [AlphaHGA, α-Hydroxy-glycinamide hydrochloride] came in with a CC50 at 96 hr in “in vitro” of 606 ± 23 µM.
With `NCC(N)=O` [G-NH2, glycinamide], in the data set on CEM cells [1], the CC50 is over 2000 µM. The concentration giving a half-maximal response (EC50) with CEM cells [1] is over 2000 µM. Besides, in the data set with CEM cells [1], the “no cytotoxicity at concentrations as high as” value was in the range of 1500 to 2000 µM. Also, the results for the “conversion of G-NH2 to modified G-NH2” value in data set [2] (6 hours) and in data set [2] (24 hours) were 6-10% and 18-32%, respectively. Moreover, the “conversion to modified G-NH2 (24 hr) (percent conversion) Dialysed Pig plasma” value in data set [3] (18 μM G-NH2, 90% in PBS) is given as 99.8%; in data set [3] (100 μM G-NH2, 90% in PBS) it was 99.8%; in data set [3] (1,000 μM G-NH2, 90% in PBS), 99.8%; in data set [3] (10,000 μM G-NH2, 90% in PBS), 24.7%. The Percent conversion in data set [3] (setting [7]) stood at 82.6%; in data set [3] (setting [8]), 42.1%; in data set [3] (setting [9]) it was 24.9%; in data set [3] (setting [10]) it was 21.0%; in data set [3] (setting [11]) it was 17.0%. Besides, the μM formation in data set [3] (setting [7]) is reported as 1,652 μM; in data set [3] (setting [8]), 1,684 μM; in data set [3] (setting [9]), 1,494 μM; in data set [3] (setting [10]), 1,680 μM; in data set [3] (setting [11]) it was 1,700 μM. Also, the “conversion of G-NH2 to Metabolite X” value in data set [4] is reported as “unable to convert”.
Regarding `NCC(=O)N1CCC[C@H]1C(=O)NCC(N)=O` [GPG-NH2, glycylprolylglycinamide] (H-Gly-Pro-Gly-NH2), in the data set with CEM cells [5], the “no cytotoxicity at concentrations as high as” value fell in the range of 1500 to 2000 µM. In addition, the EC50 in data set [6] was over 2000 µM.

For the origin of these results see patent US20080076824A1, “Compounds That Inhibit Replication Of Human Immunodeficiency Virus” (priority 2004, published 2008).
